Reference: patent publication US20050020559A1, “Chlorin photosensitizing agents for use in photodynamic therapy” (priority 2001, published 2005)

Legend:
choriocapillaris = assay: Normal choriocapillaris rabbit model: PDT vessel closure out to 28 days, fluorescein angiography; type: in vivo; conditions: pigmented rabbit, intravenous, light dose 20 J/cm^2, optimal drug dose and time interval per compound, grade by fluorescein angiography
Procedure: The chlorin e6molecules were evaluated in a series of preclinical ocular neovessel models, corneal neovascularization, normal choriocapillaris vessels, and choroidal neovascularization.
Selected chlorin e6 molecules were also evaluated in a normal choriocapillaris model in the pigmented rabbit. […] The selected photosensitizers were administered intravenously at varying drug doses, the light dose was set constant at 20 J/cm^2, and the time interval was varied from 5-30 minutes between drug and light administration. Two PDT treatment areas were placed on the fundus of each eye in each rabbit. Fluorescein angiography was used to evaluate vessel closure following PDT out to 28 days.

corneal neovessels = assay: Experimentally induced corneal neovascularization (N-heptanol scrub): PDT closure of corneal neovessels, fluorescein angiography out to 28 days; type: in vivo, Sprague Dawley rats; conditions: corneal neovessels induced by n-heptanol scrub, rats; light dose 20 J/cm^2 at optimal excitation wavelength; optimal drug dose and time interval per compound; grade by corneal fluorescein angiography (neovessel-free area)
Procedure: The chlorin e6molecules were evaluated in a series of preclinical ocular neovessel models, corneal neovascularization, normal choriocapillaris vessels, and choroidal neovascularization. […] The chemical scrub was used to remove the corneal epithelium and stem cells, allowing the neovessels to grow across the entire cornea. PDT was performed at approximately 3 weeks after the chemical scrub when the neovessels formed a uniform network across the cornea. The PDT treatment was applied to the corneal surface with a laser wavelength that was optimized for the given absorption spectrum. The laser energy was coupled through a slit lamp biomicroscope with a slit lamp adapter. A 3.0 mm spot size was used (Area=7.07 mm^2). The light dose delivered was varied from 5-25 J/cm^2. The efficacy of neovessel closure was evaluated by measuring the area of treated cornea that remained neovessel-free out to 28 days following PDT. Accurate area measurements were taken using fluorescein angiography and measuring the area of neovessel-free cornea.

[1] = tested on: choroidal neovascularization lesions; assay: Laser-induced choroidal neovascularization (CNV) model: PDT closure of CNV lesions, fluorescein angiography and histopathology; type: in vivo, rats
Procedure: Two of the chlorin e6molecules, (39) and (106), were evaluated in a laser-induced choroidal neovascularization (CNV) model in rats. Laser photocoagulation was used to stimulate choroidal neovessel growth on the fundus of the rat (E. T. Dobi, C. Puliafito, M. A. Destro, “A new model of experimental choroidal neovascularization in the rat”, Arch. Ophthalmol. 1989; 107: 264-269). The PDT treatments were performed approximately 4 weeks after the laser photocoagulation, which was when the choroidal neovascularization lesions were fully developed. The lesions were PDT treated using a 1.2 mm spot which covered the entire CNV lesion. Fluorescein angiography and histopathology were used to evaluate the CNV closure.

SMILES: C=Cc1c(C)c2cc3nc(c(CC(=O)OC)c4[nH]c(cc5nc(cc1[nH]2)C(C)=C5CC)c(C)c4C(=O)NCCCOC(C)=O)C(CCC(=O)OC)C3C (centres unmarked) [Compound 34, 3-[[(3-acetoxypropyl)amino]carbonyl]-13-ethenyl-18-ethyl-7,8-dihydro-5-(2-methoxy-2-oxoethyl)-2,8,12,17-tetramethyl-21H, 23H-Porphine-7-propionic acid, methyl ester]
- Closure at 28 Days (choriocapillaris): 3 (3 = 51-75%)
- Extent of neovessel closure at 28 days after treatment (corneal neovessels): 1 (1 = 0.21-1.0 mm^2)

SMILES: C=Cc1c(C)c2cc3nc(c(CC(=O)OC)c4[nH]c(cc5nc(cc1[nH]2)C(C)=C5CC)c(C)c4C(=O)NCCOCCO)C(CCC(=O)OC)C3C (centres unmarked) [Compound 39, 3-[[(5-hydroxy-3-oxa-pentyl)amino]carbonyl]-13-ethenyl-18-ethyl-7,8-dihydro-5-(2-methoxy-2-oxoethyl)-2,8,12,17-tetramethyl-21H, 23H-Porphine-7-propionic acid, methyl ester]
- CNV closure (fluorescein angiography) ([1]; 0.8 & 1.6 μmoles/kg, 10-20 minutes time interval post injection, 7 days after PDT): closed the CNV lesion
- Closure at 28 Days (choriocapillaris): 4 (4 > 75%)
- Extent of neovessel closure at 28 days after treatment (corneal neovessels): 1 (1 = 0.21-1.0 mm^2)

SMILES: C=Cc1c(C)c2cc3nc(c(CC(=O)OC)c4[nH]c(cc5nc(cc1[nH]2)C(C)=C5CC)c(C)c4C(=O)NCCOCCOC(C)=O)C(CCC(=O)OC)C3C (centres unmarked) [Compound 45, 3-[[(5-acetoxy-3-oxa-pentyl)amino]carbonyl]-13-ethenyl-18-ethyl-7,8-dihydro-5-(2-methoxy-2-oxoethyl)-2,8,12,17-tetramethyl-21H, 23H-Porphine-7-propionic acid, methyl ester]
- Closure at 28 Days (choriocapillaris): 3 (3 = 51-75%)
- Extent of neovessel closure at 28 days after treatment (corneal neovessels): 1 (1 = 0.21-1.0 mm^2)

SMILES: C=Cc1c(C)c2cc3nc(c(CCO)c4[nH]c(cc5nc(cc1[nH]2)C(C)=C5CC)c(C)c4C(=O)NCCOCCO)C(CCCO)C3C (centres unmarked) [Compound 43, 7-(3-hydroxypropyl)-3-[[(5-hydroxy-3-oxa-pentyl)amino]carbonyl]-13-ethenyl-18-ethyl-7,8-dihydro-5-(2-hydroxyethyl)-2,8,12,17-tetramethyl-21H, 23H-Porphine]
- Extent of neovessel closure at 28 days after treatment (corneal neovessels): 1 (1 = 0.21-1.0 mm^2)

SMILES: CCC1=C(C)c2cc3[nH]c(cc4nc(c(CC(=O)OC)c5[nH]c(cc1n2)c(C)c5C(=O)NCCCO)C(CCC(=O)OC)C4C)c(C)c3C(C)=O (centres unmarked) [Compound 101, 3-[[(3-hydroxypropyl]amino]carbonyl]-13-acetyl-18-ethyl-7,8-dihydro-5-(2-methoxy-2-oxoethyl)-2,8,12,17-tetramethyl-21H, 23H-Porphine-7-propionic acid, methyl ester]
- Extent of neovessel closure at 28 days after treatment (corneal neovessels): 0 (0 = 0-0.2 mm^2)

SMILES: C=Cc1c(C)c2cc3nc(c(CC(=O)OC)c4[nH]c(cc5nc(cc1[nH]2)C(C)=C5CC)c(C)c4C(=O)NCCCO)C(CCC(=O)OC)C3C (centres unmarked) [Compound 30, 3-[[(3-hydroxypropyl)amino]carbonyl]-13-ethenyl-18-ethyl-7,8-dihydro-5-(2-methoxy-2-oxoethyl)-2,8,12,17-tetramethyl-21H, 23H-Porphine-7-propionic acid, methyl ester]
- Closure at 28 Days (choriocapillaris): 3 (3 = 51-75%)
- Extent of neovessel closure at 28 days after treatment (corneal neovessels): 2 (2 = 1.1-2.0 mm^2)

SMILES: CCC1=C(C)c2cc3[nH]c(cc4nc(c(CC(=O)OC)c5[nH]c(cc1n2)c(C)c5C(=O)NCCOCCO)C(CCC(=O)OC)C4C)c(C)c3C(C)=O (centres unmarked) [Compound 106, 3-[[(5-hydroxy-3-oxa-pentyl)amino]carbonyl]-13-acetyl-18-ethyl-7,8-dihydro-5-(2-methoxy-2-oxoethyl)-2,8,12,17-tetramethyl-21H, 23H-Porphine-7-propionic acid, methyl ester]
- CNV closure (fluorescein angiography) ([1]; 0.75 μmoles/kg, 20 minutes time interval post injection, 7 days post PDT): demonstrated CNV closure
- Closure at 28 Days (choriocapillaris): 4 (4 > 75%)
- Extent of neovessel closure at 28 days after treatment (corneal neovessels): 1 (1 = 0.21-1.0 mm^2)
